Test system: human IGF-IR mRNA
Test: Antisense inhibition of human IGF-IR mRNA levels by quantitative RT-PCR (Table 1)
Format: cell-based
Set-up: %INHIB (human IGF-IR mRNA levels): concentration or dose not given beside the values
Settings: for %INHIB (human IGF-IR mRNA levels): quantitative RT-PCR, averages from 3 experiments; for inhibition of IGF-IR expression (lead compounds): as shown in Table 1
Excerpt: Treatment of A549 cell cultures with oligonucleotides targeting IGF-IR is as described in WO 2004/072284.
Quantitation of IGF-IR mRNA levels was accomplished by RT-PCR using the ABI PRISM (trademark) 7600, 7700, or 7900 Sequence Detection System (PE-Applied Biosystems, Foster City, Calif.) according to manufacturer's instructions. This is a closed-tube, non-gel-based, fluorescence detection system which allows high-throughput quantitation of PCR products in real-time. As opposed to standard PCR in which amplification products are quantitated after the PCR is completed, products in real-time quantitative PCR are quantitated as they accumulate. This is accomplished by including in the PCR reaction an oligonucleotide probe that anneals specifically between the forward and reverse PCR primers, and contains two fluorescent dyes. A reporter dye (e.g., FAM or JOE, obtained from either PE-Applied Biosystems, Foster City, Calif., Operon Technologies Inc., Alameda, Calif. or Integrated DNA Technologies Inc., Coralville, Iowa) is attached to the 5′-end of the probe and a quencher dye (e.g., TAMRA, obtained from either PE-Applied Biosystems, Foster City, Calif., Operon Technologies Inc., Alameda, Calif. or Integrated DNA Technologies Inc., Coralville, Iowa) is attached to the 3′-end of the probe. When the probe and dyes are intact, reporter dye emission is quenched by the proximity of the 3′ quencher dye. During amplification, annealing of the probe to the target sequence creates a substrate that can be cleaved by the 5′-exonuclease activity of Taq polymerase. […] With each cycle, additional reporter dye molecules are cleaved from their respective probes, and the fluorescence intensity is monitored at regular intervals by laser optics built into the ABI PRISM (trademark) Sequence Detection System. In each assay, a series of parallel reactions containing serial dilutions of mRNA from untreated control samples generates a standard curve that is used to quantitate the percent inhibition after antisense oligonucleotide treatment of test samples.
PCR reagents were obtained from Invitrogen Corporation, (Carlsbad, Calif.). RT-PCR reactions were carried out by adding 20 μL PCR cocktail (2.5×PCR buffer minus MgCl2, 6.6 mM MgCl2, 375 μM each of dATP, dCTP, […] and dGTP, 375 nM each of forward primer and reverse primer, 125 nM of probe, 4 Units RNAse inhibitor, 1.25 Units PLATINUM (registered trademark) Taq, 5 Units MuLV reverse transcriptase, and 2.5×ROX dye) to 96-well plates containing 30 μL total RNA solution (20-200 ng). The RT reaction was carried out by incubation for 30 minutes at 48° C. Following a 10 minute incubation at 95° C. to activate the PLATINUM (trademark) Taq, 40 cycles of a two-step PCR protocol were carried out: 95° C. for 15 seconds (denaturation) followed by 60° C. for 1.5 minutes (annealing/extension).
Gene target quantities obtained by RT-PCR are normalized using either the expression level of GAPDH, a gene whose expression is constant, or by quantifying total RNA using RiboGreen (trademark) (Molecular Probes, Inc. Eugene, Oreg.). GAPDH expression is quantified by RT-PCR, by being run simultaneously with the target, multiplexing, or separately. Total RNA is quantified using RiboGreen (trademark) RNA quantification reagent (Molecular Probes, Inc. Eugene, Oreg.). Methods of RNA quantification by RiboGreen (trademark) are taught in Jones et al., 1998.
Probes and primers to human IGF-IR were designed to hybridize to the IGF-IR nucleotide sequence, using published sequence information (GenBank accession number NM000875 (SEQ ID NO:76) or M69229 (SEQ ID NO:77) which is the 5′ untranslated of the IGF-IR gene sequence (see FIG. 6).
In accordance with the present invention, a series of antisense compounds were designed to target different regions of the human IGF-IR mRNA or the 5′ untranslated region, using published sequences set forth in NM000875 (SEQ ID NO:77) and M69229 (SEQ ID NO:76). […]

Substance	%INHIB (human IGF-IR mRNA levels) [%]	inhibition of IGF-IR expression (lead compounds)
175301 (antisense AGCCCAAATCTGCCTAGGCG; listed as DNA, chemistry not fully specified) [compound 175301]	77	–
323742 (antisense TCCTTGTTATCCACTCTGCT; listed as DNA, chemistry not fully specified) [compound 323742]	58	–
175299 (antisense AATCTGCCTAGGCGAGGAAA; listed as DNA, chemistry not fully specified) [compound 175299]	78	–
175315 (antisense GCAGCGGCCCAGGGCTCGGC; listed as DNA, chemistry not fully specified) [compound 175315]	75	–
323762 (antisense GCCTTGTGTCCTGAGTGTCT; listed as DNA, chemistry not fully specified) [compound 323762]	84	demonstrated inhibition
175304 (antisense TCGCTGAAGGTCACAGCCGA; listed as DNA, chemistry not fully specified) [compound 175304]	76	–
323722 (antisense CGGTAGTTGTACTCATTGTT; listed as DNA, chemistry not fully specified) [compound 323722]	71	–
323695 (antisense CCTTTTATTTGGGATGAAAT; listed as DNA, chemistry not fully specified) [compound 323695]	50	–
323725 (antisense TTTGTGGTCCAGCAGCGGTA; listed as DNA, chemistry not fully specified) [compound 323725]	67	–
323696 (antisense CCAGACTTCATTCCTTTTAT; listed as DNA, chemistry not fully specified) [compound 323696]	44	–
323756 (antisense ACTCCTTCATAGACCATCCC; listed as DNA, chemistry not fully specified) [compound 323756]	26	–
175327 (antisense ACAAGTCTCAAACTCAGTCT; listed as DNA, chemistry not fully specified) [compound 175327]	61	–
323719 (antisense TGTTGATGGTGGTCTTCTCA; listed as DNA, chemistry not fully specified) [compound 323719]	66	–
323716 (antisense CACAGGTCCCCACATTCCTT; listed as DNA, chemistry not fully specified) [compound 323716]	42	–
175316 (antisense GCTCGCTGAAGGTCACAGCC; listed as DNA, chemistry not fully specified) [compound 175316]	82	demonstrated inhibition
323766 (antisense GCCCATGTCAGTTAAGGGTT; listed as DNA, chemistry not fully specified) [compound 323766]	69	–
323746 (antisense TTCTCAGCCTCGTGGTTGCA; listed as DNA, chemistry not fully specified) [compound 323746]	62	–
323758 (antisense GAGACCGGAGATAACTTTTG; listed as DNA, chemistry not fully specified) [compound 323758]	29	–
323708 (antisense TCCTTGAGATTGGTCATCTC; listed as DNA, chemistry not fully specified) [compound 323708]	41	–

Substance	%INHIB (human IGF-IR mRNA levels) [%]	inhibition of IGF-IR expression (lead compounds)
323733 (antisense CCATGGTGAGGGTCACAGCC; listed as DNA, chemistry not fully specified) [compound 323733]	78	–
323703 (antisense GTCCTCGGCCTTGGAGATGA; listed as DNA, chemistry not fully specified) [compound 323703]	71	–
323717 (antisense CTGGACACAGGTCCCCACAT; listed as DNA, chemistry not fully specified) [compound 323717]	45	–
323718 (antisense ATGGTGGTCTTCTCACACAT; listed as DNA, chemistry not fully specified) [compound 323718]	69	–
323706 (antisense TGGTCATCTCGAAGATGACC; listed as DNA, chemistry not fully specified) [compound 323706]	5	–
175292 (antisense AGTCTCAAACTCAGTCTTCG; listed as DNA, chemistry not fully specified) [compound 175292]	78	–
323721 (antisense GTTGTACTCATTGTTGATGG; listed as DNA, chemistry not fully specified) [compound 323721]	73	–
175321 (antisense TCGGCCTCCATTTTCAAACC; listed as DNA, chemistry not fully specified) [compound 175321]	78	–
323744 (antisense CGTGGTTGCAGCTGTGGATA; listed as DNA, chemistry not fully specified) [compound 323744]	85	demonstrated inhibition
323741 (antisense GTTATCCACTCTGCTCTCAA; listed as DNA, chemistry not fully specified) [compound 323741]	57	–
323707 (antisense GAGATTGGTCATCTCGAAGA; listed as DNA, chemistry not fully specified) [compound 323707]	20	–
323763 (antisense ATCCAAGGATCAGCAGGTCG; listed as DNA, chemistry not fully specified) [compound 323763]	69	–
323705 (antisense TTGTAGAAGAGTTTCCAGCC; listed as DNA, chemistry not fully specified) [compound 323705]	52	–
323750 (antisense TTTAAAAAGATGGAGTTTTC; listed as DNA, chemistry not fully specified) [compound 323750]	8	–
323711 (antisense CCCCCGAGTAATGTTCCTCA; listed as DNA, chemistry not fully specified) [compound 323711]	41	–
323720 (antisense CTCATTGTTGATGGTGGTCT; listed as DNA, chemistry not fully specified) [compound 323720]	81	–
323697 (antisense TGATAGTCGTTGCGGATGTC; listed as DNA, chemistry not fully specified) [compound 323697]	73	–
175296 (antisense ATGCTGGTAAACAAGAGCCC; listed as DNA, chemistry not fully specified) [compound 175296]	57	–

From US9084770B2, “Modulation of insulin like growth factor I receptor expression in cancer” (Antisense Therapeutics, Ltd., priority 2008, dated 2015)
